# Measurements published in patent US20090215857A1 (Pfizer Products Inc., priority 2005, published 2009).
# Target: T1, human norepinephrine transporter (Homo sapiens, UniProt P23975)
# T1 construct: expressed in transfected cells; host or cells: HEK-293
# Experiment: hNET receptor binding ([125I]-RTI-55 radioligand)
# Settings: membranes of HEK-293 cells transfected with human norepinephrine transporter cDNA; 50 pM [125I]-RTI-55; IC50 converted by Cheng-Prusoff; read-out: NET Ki
# Description: (§1) Cell pastes of HEK-293 cells transfected with a human norepinephrine transporter cDNA were prepared. The cell pastes were resuspended in 400 to 700 ml of Krebs-HEPES assay buffer (25 mM HEPES, 122 mM NaCl, 3 mM KCl, 1.2 mM MgSO4, 1.3 mM CaCl2, and 11 mM glucose, pH 7.4) with a Polytron homogenizer at setting 7 for 30 seconds. Aliquots of membranes (5 mg/ml protein) were stored in liquid nitrogen until used.
# The binding assay was set up in Beckman deep-well polypropylene plates with a total volume of 250 μl containing: test compound (10^−5M to 10^−12M), cell membranes, and 50 pM [^125I]-RTI-55 (Perkin Elmer, NEX-272; specific activity 2200 Ci/mmol). The reaction was incubated by gentle agitation for 90 minutes at room temperature and was terminated by filtration through Whatman GF/C filter plates using a Brandel 96-well plate harvester. Scintillation fluid (100 μl) was added to each well, and bound [^125I]-RTI-55 was determined using a Wallac Trilux Beta Plate Counter. Test compounds were run in duplicate, and specific binding was defined as the difference between binding in the presence and absence of 10 μM desipramine.
# Excel and GraphPad Prism software were used for data calculation and analysis. IC50 values were converted to K, values using the Cheng-Prusoff equation.
# T1 sequence (P23975 whole entry): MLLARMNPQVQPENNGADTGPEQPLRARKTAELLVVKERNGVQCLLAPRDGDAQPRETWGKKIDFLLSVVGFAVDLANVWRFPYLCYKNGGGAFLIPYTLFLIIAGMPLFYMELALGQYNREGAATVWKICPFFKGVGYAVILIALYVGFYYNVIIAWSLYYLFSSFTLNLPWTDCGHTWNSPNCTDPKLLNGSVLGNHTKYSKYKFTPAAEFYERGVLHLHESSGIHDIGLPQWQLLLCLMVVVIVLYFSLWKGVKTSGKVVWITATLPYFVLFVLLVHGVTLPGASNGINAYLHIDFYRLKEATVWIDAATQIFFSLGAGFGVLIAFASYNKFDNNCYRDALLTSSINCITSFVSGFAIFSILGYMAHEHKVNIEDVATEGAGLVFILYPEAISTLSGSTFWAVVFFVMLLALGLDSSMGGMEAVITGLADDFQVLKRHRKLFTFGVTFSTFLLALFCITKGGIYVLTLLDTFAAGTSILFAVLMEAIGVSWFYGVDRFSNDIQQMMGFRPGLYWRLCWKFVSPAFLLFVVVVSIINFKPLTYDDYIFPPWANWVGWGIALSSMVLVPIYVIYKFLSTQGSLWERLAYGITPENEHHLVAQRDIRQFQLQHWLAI
row,Structure (SMILES),Ki [nM]
1,"COc1ccccc1-c1ccccc1CO[C@H]1CCNC1 [Example D-24, (S)-3-(2′-Methoxy-biphenyl-2-ylmethoxy)-pyrrolidine]",230
2,"COc1c(C)cc(-c2ccccc2CO[C@H]2CCNC2)cc1C [Example D-25, (S)-(4′-Methoxy-3′,5′-dimethyl-biphenyl-2-ylmethoxy)-pyrroldine]",269
3,"Cc1cc(C)cc(-c2ccccc2CO[C@H]2CCNC2)c1 [Example D-27, (S)-3-(3′,5′-Dimethyl-biphenyl-2-ylmethoxy)-pyrrolidine]",295
4,"COc1ccc(-c2ccccc2CO[C@H]2CCNC2)cc1 [Example D-28, (S)-3-(4′-Methoxy-biphenyl-2-ylmethoxy)-pyrrolidine]",301
5,"COc1ccccc1-c1ccccc1CO[C@H]1CCNC1 [Example D-31, (S)-3-(2′-Methoxy-biphenyl-2-ylmethoxy)-pyrrolidine]",464
6,"c1ccc(-c2ccc3c(c2)CCO3)c(CO[C@H]2CCNC2)c1 [Example D-32, (S)-3-[2-(2,3-Dihydro-benzofuran-5-yl)-benzyloxy]-pyrrolidine]",516
7,"Cc1cccc(-c2ccccc2CO[C@H]2CCNC2)c1C [Example D-33, (S)-3-(2′,3′-Dimethyl-biphenyl-2-ylmethoxy)-pyrrolidine]",526
8,"c1ccc(-c2ccccc2-c2ccccc2CO[C@H]2CCNC2)cc1 [Example D-34, (S)-3-([1,1′,2′,1″]Terphenyl-2-ylmethoxy)-pyrrolidine]",554
9,"Cc1cccc(-c2ccccc2CO[C@H]2CCNC2)c1C [Example D-35, (S)-3-(2′,3′-Dimethyl-biphenyl-2-ylmethoxy)-pyrrolidine]",585
10,"COc1ccc(-c2ccccc2CO[C@H]2CCNC2)cc1OC [Example D-36, (S)-3-(3′,4′-Dimethoxy-biphenyl-2-ylmethoxy)-pyrrolidine]",635
11,"FC(F)(F)Oc1ccccc1-c1ccccc1CO[C@H]1CCNC1 [Example D-37, (S)-3-(2′-Trifluoromethoxy-biphenyl-2-ylmethoxy)-pyrrolidine]",1000
12,"OCc1cccc(-c2ccccc2CO[C@H]2CCNC2)c1 [Example D-38, (S)-[2′-(Pyrrolidin-3-yloxymethyl)-biphenyl-3-yl]-methanol]",1190
13,"FC(F)(F)Oc1ccc(-c2ccccc2CO[C@H]2CCNC2)cc1 [Example D-43, (S)-3-(4′-Trifluoromethoxy-biphenyl-2-ylmethoxy)-pyrrolidine]",2670

# Results, then the molecule that gave them:
row,Ki [nM],Structure (SMILES)
1,139,"COc1cccc(-c2ccccc2CO[C@H]2CCNC2)c1 [Example D-22, (S)-3-(3′-Methoxy-biphenyl-2-ylmethoxy)-pyrrolidine]"
2,277,"Cc1ccccc1-c1ccccc1CO[C@H]1CCNC1 [Example D-26, (S)-3-(2′-Methyl-biphenyl-2-ylmethoxy)-pyrrolidine]"
3,314,"c1ccc(-c2ccc3ccccc3c2)c(CO[C@H]2CCNC2)c1 [Example D-29, (S)-3-(2-Naphthalen-2-yl-benzyloxy)-pyrroldine]"
4,371,N#Cc1cccc(-c2ccccc2CO[C@H]2CCNC2)c1 [Example D-30]
5,1260,"CCOc1ccc(-c2ccccc2CO[C@H]2CCNC2)cc1 [Example D-40, (S)-3-(4′-Ethoxy-biphenyl-2-ylmethoxy)-pyrrolidine]"
6,1280,CC(=O)c1cccc(-c2ccccc2CO[C@H]2CCNC2)c1 [Example D-41]
7,2540,"CC(=O)c1ccccc1-c1ccccc1CO[C@H]1CCNC1 [Example D-42, (S)-1-[2′-(Pyrrolidin-3-yloxymethyl)-biphenyl-2-yl]-ethanone]"

# Target: T2, human serotonin transporter (Homo sapiens, UniProt P31645)
# T2 construct: expressed in transfected cells; host or cells: HEK-293
# Experiment: hSERT receptor binding ([125I]-RTI-55 radioligand)
# Settings: membranes of HEK-293 cells transfected with human serotonin transporter cDNA; 50 pM [125I]-RTI-55; IC50 converted by Cheng-Prusoff; read-out: SERT Ki
# Description: as §1, with “serotonin” for “norepinephrine”, “Setting” for “setting”, “(˜2.5” for “(5”
# Assays were set up in FlashPlates pre-coated with 0.1% PEI in a total volume of 250 μl containing: test compound (10^−5M to 10^−12M), cell membranes, and 50 pM [^125I]-RTI-55 (Perkin Elmer, NEX-272; specific activity 2200 Ci/mmol). The reaction was incubated and gently agitated for 90 minutes at room temperature, and terminated by removal of assay volume. Plates were covered, and bound [^125I]-RTI-55 was determined using a Wallac Trilux Beta Plate Counter. Test compounds were run in duplicate, and specific binding was defined as the difference between binding in the presence and absence of 10 μM citalopram.
# Excel and GraphPad Prism software were used for data calculation and analysis. IC50 values were converted to Ki values using the Cheng-Prusoff equation.
# T2 sequence (P31645 whole entry): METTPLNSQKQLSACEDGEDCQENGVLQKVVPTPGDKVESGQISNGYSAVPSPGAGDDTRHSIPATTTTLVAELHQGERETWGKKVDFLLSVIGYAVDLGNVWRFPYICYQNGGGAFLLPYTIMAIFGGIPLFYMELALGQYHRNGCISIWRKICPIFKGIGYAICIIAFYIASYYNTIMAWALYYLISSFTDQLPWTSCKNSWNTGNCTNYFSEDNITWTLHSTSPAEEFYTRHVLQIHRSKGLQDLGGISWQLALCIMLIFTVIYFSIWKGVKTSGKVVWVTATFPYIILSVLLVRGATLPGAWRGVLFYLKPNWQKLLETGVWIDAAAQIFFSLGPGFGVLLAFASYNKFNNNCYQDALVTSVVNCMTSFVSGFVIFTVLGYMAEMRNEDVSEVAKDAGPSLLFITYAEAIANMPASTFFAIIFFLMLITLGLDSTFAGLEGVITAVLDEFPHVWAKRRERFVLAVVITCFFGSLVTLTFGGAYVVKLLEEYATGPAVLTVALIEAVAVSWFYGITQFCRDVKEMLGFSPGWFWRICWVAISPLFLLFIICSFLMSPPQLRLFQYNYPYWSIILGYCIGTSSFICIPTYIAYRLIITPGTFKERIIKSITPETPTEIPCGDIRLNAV
row,Structure (SMILES),Ki [nM]
1,"COc1ccccc1-c1ccccc1CO[C@H]1CCNC1 [Example D-24, (S)-3-(2′-Methoxy-biphenyl-2-ylmethoxy)-pyrrolidine]",1260
2,"COc1c(C)cc(-c2ccccc2CO[C@H]2CCNC2)cc1C [Example D-25, (S)-(4′-Methoxy-3′,5′-dimethyl-biphenyl-2-ylmethoxy)-pyrroldine]",124
3,"Cc1cc(C)cc(-c2ccccc2CO[C@H]2CCNC2)c1 [Example D-27, (S)-3-(3′,5′-Dimethyl-biphenyl-2-ylmethoxy)-pyrrolidine]",91.9
4,"COc1ccc(-c2ccccc2CO[C@H]2CCNC2)cc1 [Example D-28, (S)-3-(4′-Methoxy-biphenyl-2-ylmethoxy)-pyrrolidine]",1100
5,"COc1ccccc1-c1ccccc1CO[C@H]1CCNC1 [Example D-31, (S)-3-(2′-Methoxy-biphenyl-2-ylmethoxy)-pyrrolidine]",3100
6,"c1ccc(-c2ccc3c(c2)CCO3)c(CO[C@H]2CCNC2)c1 [Example D-32, (S)-3-[2-(2,3-Dihydro-benzofuran-5-yl)-benzyloxy]-pyrrolidine]",549
7,"Cc1cccc(-c2ccccc2CO[C@H]2CCNC2)c1C [Example D-33, (S)-3-(2′,3′-Dimethyl-biphenyl-2-ylmethoxy)-pyrrolidine]",28.9
8,"c1ccc(-c2ccccc2-c2ccccc2CO[C@H]2CCNC2)cc1 [Example D-34, (S)-3-([1,1′,2′,1″]Terphenyl-2-ylmethoxy)-pyrrolidine]",2750
9,"Cc1cccc(-c2ccccc2CO[C@H]2CCNC2)c1C [Example D-35, (S)-3-(2′,3′-Dimethyl-biphenyl-2-ylmethoxy)-pyrrolidine]",59.6
10,"COc1ccc(-c2ccccc2CO[C@H]2CCNC2)cc1OC [Example D-36, (S)-3-(3′,4′-Dimethoxy-biphenyl-2-ylmethoxy)-pyrrolidine]",150
11,"FC(F)(F)Oc1ccccc1-c1ccccc1CO[C@H]1CCNC1 [Example D-37, (S)-3-(2′-Trifluoromethoxy-biphenyl-2-ylmethoxy)-pyrrolidine]",5650
12,"OCc1cccc(-c2ccccc2CO[C@H]2CCNC2)c1 [Example D-38, (S)-[2′-(Pyrrolidin-3-yloxymethyl)-biphenyl-3-yl]-methanol]",39.3
13,"FC(F)(F)Oc1ccc(-c2ccccc2CO[C@H]2CCNC2)cc1 [Example D-43, (S)-3-(4′-Trifluoromethoxy-biphenyl-2-ylmethoxy)-pyrrolidine]",16.9

# Further lines, results first:
row,Ki [nM],Structure (SMILES)
1,27.3,"COc1cccc(-c2ccccc2CO[C@H]2CCNC2)c1 [Example D-22, (S)-3-(3′-Methoxy-biphenyl-2-ylmethoxy)-pyrrolidine]"
2,457,"Cc1ccccc1-c1ccccc1CO[C@H]1CCNC1 [Example D-26, (S)-3-(2′-Methyl-biphenyl-2-ylmethoxy)-pyrrolidine]"
3,172,"c1ccc(-c2ccc3ccccc3c2)c(CO[C@H]2CCNC2)c1 [Example D-29, (S)-3-(2-Naphthalen-2-yl-benzyloxy)-pyrroldine]"
4,285,N#Cc1cccc(-c2ccccc2CO[C@H]2CCNC2)c1 [Example D-30]
5,919,"CCOc1ccc(-c2ccccc2CO[C@H]2CCNC2)cc1 [Example D-40, (S)-3-(4′-Ethoxy-biphenyl-2-ylmethoxy)-pyrrolidine]"
6,345,CC(=O)c1cccc(-c2ccccc2CO[C@H]2CCNC2)c1 [Example D-41]
7,≥ 10000,"CC(=O)c1ccccc1-c1ccccc1CO[C@H]1CCNC1 [Example D-42, (S)-1-[2′-(Pyrrolidin-3-yloxymethyl)-biphenyl-2-yl]-ethanone]"
